Source: patent US12687540B2, “Amyloid-binding compounds and methods of use thereof” (Vanderbilt University, priority 2019, dated 2026)
Like-named read-outs stand apart in the source and are kept apart here.

Key:
[1] = target: T1, endogenous amyloid-β (Abeta) plaques in the 5XFAD brain lysate (Homo sapiens, UniProt P05067); assay: HATCO assay (high-throughput amyloid Thioflavin competitive binding optical assay), thioflavin-T fluorescence readout; set-up: species or system 5XFAD mice; conditions: for IC50: competition with thioflavin-T for Abeta in 5XFAD brain lysate, 384-well, 4-parameter fit
T1 construct: coexpressed five familial AD (FAD) and additively increase Abeta-42 production; from tissue; host or cells: midbrain lysate (supernatant) of 8-month-old 5XFAD transgenic mice
T1 sequence (P05067 672-713 limits assumed): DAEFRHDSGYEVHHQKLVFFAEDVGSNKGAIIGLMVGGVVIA
Source text: However, when bound to Abeta plaque, its FL increases dramatically and results in a strong FL signal with a characteristically shifted λmax to approximately 485 nm. In view thereof, as opposed to existing methods that detect binding of the dye through increased fluorescence, the present methods identify amyloid-binding compounds through a lack of binding between the dye and the amyloid, as evidenced by attenuated fluorescence. […] Accordingly, in some embodiments, the method of screening includes combining the target compound(s) with a dye (e.g., Thioflavin-T) and endogenous amyloid (e.g., endogenous amyloid-β (Abeta) plaques in the 5XFAD brain lysate), then measuring the fluorescence of the combination. In some embodiments, the fluorescence of the combination is then compared to negative and/or positive control.
HATCO competitive binding study. […] To facilitate the generation of concentration-response curves, fluorescence at each data point was averaged on a compound-by-compound basis and plotted as a function of concentration. […] From this curve, IC50 values for each compound were calculated by fitting the data to a 4-parameter logistical model in the GraphPad software package.
Brain lysate preparation—Excised midbrains of 5XFAD (8-month-old) or wt mice (age-matched) were homogenized for 5 min in 200 μL of buffer comprised of 21.4 g sucrose, 5 mL of 1 M tris base, and 0.5 mL of 0.5 M EDTA/250 mL DPBS using the T-25 basic Ultra-Turrax homogenizer. Additional 100 μL aliquots of this buffer were then added to the homogenized sample and re-homogenized for 2 min until a total added volume of 800 μL was attained. The sample was diluted to 4 mL total volume using another buffer comprised of 5% BSA, and 0.03% Tween 20 in DPBS solution. Roche Complete protease inhibitor tablets were added to both buffers immediately prior to use (1 tablet/10 mL buffer). The sample was centrifuged at 16,000 g for 30 min at 4° C. Aliquots of the supernatant were stored at −80° C. until use.
HATCO HTS assay—To translate the assay initially performed on a cuvette to a 384-well format, the general protocol includes the following steps: A fresh stock solution of thioflavin-T was prepared in distilled and deionized water after passing through a micro filter. The concentration of […] was measured according to Beer's law with an extinction coefficient of 26,620 M^−1cm^−1 at 416 nm. The stock solution was stored in darkness using aluminum foil and kept at 4° C. throughout the assay. Unless stated, each assaying well contained 10 μM of thioflavin-T, 5 mg/mL of freshly isolated and homogenized brain lysate (5 μL) obtained from 5XFAD mice and with 30 μM of screening compounds. […] For the negative control, the wells contained the same components minus positive control. The protein concentration of brain lysate throughout the study was normalized. After equilibration for 10 min at room temperature, the FL signal of the sample was measured using a Biotek Synergy NEO plate reader at an emission lambda max of 485 nm using an excitation of 465 nm and the signals of the different conditions were analyzed. The final volume per well was 50 μL. All assays were performed using a single dose of screening compounds in triplicate.
Once the preliminary hit compounds were identified, a cross-screening protocol was employed to validate the hits with duplicated concentrations for each hit.

[2] = mouse, in vivo
Procedure: In the HPLC experiment, WT and 5XFAD mice (n=3, each) were injected with promethazine via the tail veins, and subsequently perfused 10 min or 4 h post-injection. Freshly isolated brains were homogenized to facilitate extraction and quantification via HPLC using the procedure we reported earlier.

[3] = tested on: Abeta plaques; assay: Autoradiography of human brain tissues from Alzheimer's disease patients with [11C]promethazine PET probe; type: binding; conditions: human AD brain tissue sections soaked in probe in PBS; compared with a large excess of cold promethazine
Source text: (A) Tissues ([…]) on glass slides were soaked in [^11C]promethazine PET probe diluted in PBS solution. (B) Tissues were soaked in the same solution as (A), albeit with the presence of a large excess of “cold” (unlabeled) promethazine, denoted as PMZ in the figure.

“1,6,7,1′,6′,7′-Hexahydroxy-5,5′-diisopropyl-3,3′-dimethyl-[2,2′]binaphthalenyl-8,8′-dicarbaldehyde [VU0243640]” gave an IC50 [1] of 84.2 µM.
In the case of `CC(CN1c2ccccc2Sc2ccccc21)N(C)C` (centres unmarked) [Promethazine, N,N-dimethyl-1-(10H-phenothiazin-10-yl)propan-2-amine], the IC50 [1] is reported as 53.6 µM, the “increase in promethazine retention in Aβ-burdened brains (5XFAD vs WT)” value ([2]; 5XFAD versus WT, 10 min) is reported as roughly 4 fold and the “level of promethazine measured in brain (mean)” value ([2]; 5XFAD, 10 min) is reported as 9.62 µg. The “original dose retained within the brain” value ([2]; 5XFAD, 10 min) was 2%, the “original dose retained within the brain” value ([2]; 5XFAD, 240 min) was 0.5% and the “level of promethazine measured in brain (mean)” value ([2]; 10 min) was 2.57 µg. The “original dose retained within the brain” value ([2]; 10 min) was 0.5% and the “original dose retained within the brain” value ([2]; 240 min) was 0.01%.
In the case of `Oc1ccc(/C=C/c2cc(O)cc(O)c2)cc1` [Resveratrol, (E)-5-(4-hydroxystyryl)benzene-1,3-diol], the “FL signal of thioflavin-T at 485 nm was reduced” value ([1]; 100 μM) is reported as 4.4%, the “FL signal of thioflavin-T at 485 nm was reduced” value ([1]; 500 μM) is reported as 25.9% and the “FL signal of thioflavin-T at 485 nm was reduced” value ([1]; 2000 μM) is reported as 51%.
With `O=C(O)c1cc(/N=N/c2ccc(S(=O)(=O)Nc3ccccn3)cc2)ccc1O` [VU0243360, 2-Hydroxy-5-[4-(pyridine-2-ylsulfamoyl)-phenylazo]-benzoic acid] the IC50 [1] was 68.1 µM.
In the case of `O=C1C(Cl)=C(Cl)C(=O)C(Cl)=C1Cl` [VU0243635, 2,3,5,6-Tetrachloro-[1,4]benzoquinone], the IC50 [1] is reported as 90.8 µM.
Compound `Nc1ccc(/N=N/c2ccccc2)c(N)n1` [VU0244402, 3-Phenylazo-pyridine-2,6-diamine] has an IC50 [1] of 74.3 µM.
For `O=C(N/N=C/c1ccc([N+](=O)[O-])o1)c1cc([N+](=O)[O-])cc([N+](=O)[O-])c1O` [VU0656139, 2-Hydroxy-3,5-dinitro-benzoic acid (5-nitro-furan-2-ylmethylene)-hydrazide], the IC50 [1] was 61.2 µM.
For `CC(CN1c2ccccc2Sc2ccccc21)N(C)C` (centres unmarked) [[^11C]promethazine], the “binding to Abeta plaques by autoradiography” value [3] was “bound to Abeta plaques”.
